# A melting point compilation (Tetko et al.; mined from patent text by program, amines drawn as free bases though some values may be those of a salt)
row,Structure (SMILES),melting point [°C]
1,COc1cc(OC)nc(NC(=O)OC(C)C)n1,51 to 54
2,Cc1cccc(NC(=O)NCC(=O)N(CC(=O)OC(C)(C)C)c2ccccc2C)c1,133
3,Cc1ccc(S(=O)(=O)Oc2cccnc2)cc1,76 to 78
4,N=C(NC1CC1)c1cc2c(cn1)[nH]c1ccccc12,253
5,Cc1nc(-c2ccc(C#N)cc2)cn1-c1ccc(C#N)cc1,212 to 220
6,CN(CCOc1ccc(C=O)cc1)C(=O)OC(C)(C)C,62 to 65
7,C=CC(=O)NCC(=O)O,124 to 126
8,CC1(C)CC(=O)c2c(S(C)(=O)=O)sc(C(=O)N3CCCC3)c2C1,161
9,CCCCCNC(=O)[C@H](Cc1ccc(N(CC(=O)O)CC(=O)O)cc1)NC(=O)[C@H](Cc1ccccc1)NC(=O)OC(C)(C)C,151 to 152
10,O=C(O)c1c(Cl)ccc(S(=O)(=O)N2CCCCC2)c1Cl,142 to 145
11,CCCCCc1nc(C#N)c(C#N)nc1O,61 to 64
12,OCCc1ccc(Cl)cc1CO,75 to 76
13,CCOC(=O)c1ccc(N2CCC(NC(=O)OC(C)(C)C)CC2)nc1,140 to 142
14,Cc1cc2c(c(C=O)c1C)C(C)(C)CCC2(C)C,74 to 80
15,CC1(C)Oc2ccc(S(C)(=O)=O)cc2[C@@H](N2CCCS2(=O)=O)[C@@H]1O (relative stereo),220 to 221
16,O=C(O)C(=O)c1ccc(OCCOc2ccnc3ccccc23)cc1,271
17,CCCCCCOc1ccc(NC(=O)CC(=O)C(C)(C)C)cc1,70 to 72
18,COc1cccc(N(C)C(=S)Oc2ccc3c(c2)CCCC3)n1,99 to 100
19,CC(CN1CCC(C#N)C1)NC(=O)c1c[nH]c2ncc(-c3nn(C)c4cc(Cl)ccc34)nc12 (stereo unspecified),206 to 209
20,CCCc1nn(CC)c(C(=O)O)c1Cc1ccc(-c2ccccc2NS(=O)(=O)C(F)(F)F)cc1,68 to 72
21,NC(=O)c1ccc(CN2CCN(C(=O)c3cc(C(F)(F)F)cc(C(F)(F)F)c3)[C@H](Cc3c[nH]c4ccccc34)C2)cc1,120 to 126
22,Cl/C(=C\n1ccnc1)c1ccc(Cl)cc1Cl,59.1
23,CSc1nc(NC2CCCC2)c2ccnc-2[nH]1,190 to 191
24,Cc1nc(-c2ccccc2)nc(OCC(=O)O)c1C,175 to 177
25,O=C(c1ccccc1)c1ccc(OCc2cccnc2)cc1O,88 to 90
26,Cc1ccsc1C(=O)NCCO[N+](=O)[O-],74 to 76

row,Structure (SMILES),melting point [°C]
1,COC(=O)C1=CC(=O)CC(c2ccc(Cl)c(OC)c2F)N1 (stereo unspecified),165 to 166
2,COc1cc(C=C2CCc3c2nc2ccc(Cl)cn2c3=O)cc(OC)c1OC,222 to 223
3,COc1ccc(CNC(=O)c2cc3c(=O)n(CCC(=O)c4ccccc4)c(=O)n(C)c3s2)cc1,208 to 211
4,Nc1nc2cc3c(cc2s1)OCO3,200
5,CC(=O)CCn1[nH]c(=O)c2ccccc2c1=O,152 to 153
6,COC(=O)c1ccc(OC)cc1S(N)(=O)=O,135 to 139
7,NS(=O)(=O)c1ccc(-c2cnn(-c3ccc(F)c(F)c3)c(=O)c2-c2ccc(F)cc2)cc1,177 to 181
8,CCCCCCCCCCCCCC(=O)c1cc(O)c(C)c(C)c1O,100
9,CCCc1c(OCCCCCCc2cc(C)c(OC)c(OC)c2C)ccc(C(=O)O)c1O,109 to 112
10,CN(C)S(=O)(=O)c1ccc2c3c(cccc13)C(NCCCn1ccnc1)=N2,199 to 201
11,CCOC(=O)c1cnn(C)c1C(=O)Nc1ccn2nc(C(C)C)nc2c1,175 to 177
12,CCOc1ccc2c(c1)n(C1CCCCC1)c(=O)n2S(=O)(=O)c1ccc(C(=O)O)cc1OC,205
13,Cn1cnc(S(=O)(=O)Nc2ccc(C(c3c(O)c4c(oc3=O)CCCCCC4)C3CC3)cc2)c1 (stereo unspecified),238 to 242
14,CC(=O)c1ccc2c(c1)ncn2-c1cccc(N2CCN(C(C)=NO)CC2)c1,193 to 195
15,Cc1ccccc1CCOCC(=O)O,47 to 48
16,CCOC(=O)C(C)(C)c1nc2ccc(OCCCN3CCC(OC(c4ccccc4)c4ccccc4)CC3)nn2c1Cl,186 to 188
17,Cc1cccc(-c2nc(N)sc2-c2ccnc(-c3ccc(OCCN4CCCC4)cc3)c2)n1,176 to 178
18,CCOc1cc2c(Nc3cc(OC)c(Cl)cc3Cl)c(C#N)cnc2cc1C#CCCN1CCN(C)CC1,158 to 160
19,O=c1c2cc(F)c(F)cc2n(-c2ccc(F)c(Cl)c2)c(=O)n1OCc1ccccc1,184 to 186
20,O=c1nc(-c2ccco2)sc2ccccc12,170 to 172
21,CC(C)(Cc1cc2c(OCc3ccc4ccccc4n3)cccc2n1Cc1ccc(Cl)cc1)C(=O)O,158 to 160
22,O=C(CCCI)c1ccc(F)cc1O,41.4
23,CCCCNC(=O)/C(=C/C=C/c1cc2ccccc2[nH]1)OC,185 to 186
24,COCc1ncc(-n2nc(C)cc2C)nc1Nc1ccc(Cl)cc1,105 to 108
25,CNC(=S)NS(=O)(=O)c1cc(CCNC(=O)c2cc(Cl)ccc2OC)ccc1-c1ccccc1,192 to 196
26,OC1CCCc2nc3ccccc3c(NCc3cccc(F)c3)c21 (stereo unspecified),128

row,Structure (SMILES),melting point [°C]
1,O=C(O)[C@@H]1CN(C(=O)OCc2ccccc2)CCN1C(=O)N1c2ccccc2CCc2ccccc21,185
2,O=C(Nc1cccc(C(F)(F)F)c1)N1CCCCc2cc(Oc3cc(Cl)ncn3)ccc21,120
3,O=C1CN=C(c2ccccc2F)c2cc(Cl)ccc2N1CC(O)CO (stereo unspecified),117 to 118
4,Cc1nc2c(O)c(C(=O)[C@@H]3OC(C)(C)O[C@H]3c3ccccc3)ccc2n1C1CC1,153
5,CC(C)n1nc(-c2c(-c3ccccc3)nn3ccc(OCCN4CCCC4=O)cc23)ccc1=O,162 to 163
6,CNC(=O)Cn1nc(-c2ccccc2)c(-c2ccccc2)c(C#N)c1=O,292 to 294
7,COc1ccc(C(=O)c2sccc2O)cc1,86 to 87
8,COc1ccnc2[nH]cc(-c3ccnc(N)n3)c12,> 210
9,CCCCCCc1nc2c(N)nc3ccccc3c2n1CCCCNS(C)(=O)=O,170 to 171
10,CCCOc1cc(-c2nc(-c3ccc(C(=O)OC)o3)cs2)ccc1OC,141 to 142
11,CC(C)c1ccc(C(=O)NNC(=O)c2ccc(C(=O)O)cc2)cc1,235 to 237
12,CC(C)(C)OC(=O)N1CCN(C(=O)OC(C)(C)C)C(C(=O)O)C1 (stereo unspecified),231 to 233
13,COc1cc(C(=O)Nc2ccc3ccc(Cl)nc3n2)cc(OC)c1OC,210
14,CC(=O)Nc1c(C(=O)c2cccc(C#N)c2)[nH]c2cc(Cl)ccc12,185 to 187
15,c1ccn2nc(-c3ccncc3)nc2c1,188 to 190
16,CCOC(=O)C(C=O)Cc1ccc(OC)nc1 (stereo unspecified),91.5 to 94
17,O=S(=O)(CC1CCC1)c1nc[nH]n1,125 to 134
18,N#CCC(=O)c1ccccc1C1(c2ccccc2)OCC(CCl)O1 (stereo unspecified),107 to 110
19,Clc1ncc(-c2ccc3ccncc3c2)c2ccccc12,169 to 170
20,c1cncc(-c2ccc(N3CCCN(c4ccc(-c5cccnc5)cn4)CC3)nc2)c1,210 to 211
21,CC=C(C(=O)OC)c1ccccc1CBr,64 to 66
22,C=C(C)C(=O)Oc1ccc(S(=O)(=O)NCCCC)cc1,59 to 60
23,FC(F)Sc1ccc(-c2ccccc2)cc1,56 to 57
24,COc1ccc(C(=O)c2cc(-c3cccnc3)c(N3CCOCC3)s2)cc1,149
25,C[C@@H](O)C1(c2onc(-c3ccc(O)cc3)c2-c2ccccc2)CC1,213
26,N=C(Nc1ccccc1-c1ccccc1)N1CCCC(O)C1 (stereo unspecified),144 to 145

row,Structure (SMILES),melting point [°C]
1,CCCc1cc(Cl)c(OC(=S)N(C)C)c(C(C)=O)c1OC(C)=O,86 to 88
2,O=C1c2ccccc2C(=O)N1C[C@H]1COc2ccc(Cl)cc2O1,174 to 176
3,COc1ccc2c(c1)C(=O)C(=Cc1cccc([N+](=O)[O-])c1)CC2,175 to 176
4,C[C@]1(F)C(=O)O[C@H](COC(=O)c2ccc(Cl)cc2)[C@H]1OC(=O)c1ccc(Cl)cc1,138 to 141
5,COC(=O)c1cn(-c2ccc(OC)c(OC3CC4CCC3C4)c2)c2ccccc12 (stereo unspecified),120 to 122
6,CC(=O)c1noc2cc(OCc3cccc(C(F)(F)F)c3)ccc12,130 to 132
7,CCCC12CCC3C4CCC(=O)C=C4CCC3C1CCC2OCc1ccccc1 (stereo unspecified),198 to 200
8,CC(C)(C)OC(=O)CN(C(=O)OC(C)(C)C)[C@H](CC1CCCCC1)C(=O)N1CCC[C@H]1C(=O)NC1CCc2nc(N)sc2C1 (stereo partly specified),95 to 101
9,O=Cc1ccc2c(c1)c1cc(C=O)ccc1n2Cc1ccccc1,222 to 224
10,Cn1nnnc1-c1cn(C)c2cc(O)ccc2c1=O,> 320
11,COCCOc1cc2ncnc(Cl)c2cc1OCCOC,108 to 109
12,CCCCc1nc2cc(CO)ccc2n1Cc1ccc(-c2ccccc2C(=O)O)cc1,130 to 143
13,COc1ccc(C(=O)N2c3ccccc3C(N3CCCc4cc(C)ccc43)CC2C)cc1OC (stereo unspecified),139 to 140
14,Cc1n[nH]c2cc(-c3nn(C(C)c4oc5ccc(F)cc5c(=O)c4-c4ccccc4)c4ncnc(N)c34)ccc12 (stereo unspecified),253 to 255
15,O=c1[nH]c2c(OC3CNC3)cccc2n1Cc1ccccc1,181 to 184
16,NC(c1ccc(Cl)cc1Cl)P(O)O (stereo unspecified),244
17,COc1cc(CCCC2SC(=O)NC2=O)ccc1OCc1nc(-c2ccccc2)sc1C (stereo unspecified),149 to 150
18,CCC(OC)(c1cccc(OCc2cc3ccccc3n(C)c2=O)c1)c1nccs1 (stereo unspecified),123 to 125
19,c1ccc(OCCSCc2nnc(-c3ccc(OCCCN4CCCCCC4)cc3)o2)cc1,50
20,CC#CCOc1ccc(S(=O)(=O)C2(C(=O)O)CCN(C(C)C)CC2)cc1,233
21,NCCCCC(OP(=O)(O)CCCCc1ccc(F)cc1)C(=O)N1CCCC1C(=O)O (stereo unspecified),178 to 185
22,CCCCC1Cc2c(c3cccnc3n(-c3ccc(F)cc3)c2=O)O1 (stereo unspecified),258 to 260
23,Cc1ccccc1-c1c(CS)n(C)c(=O)c2ccccc12,184 to 186
